{"source": "patent US20110015208A1", "about": "“PHARMACEUTICAL COMPOSITIONS CONTAINING DOPAMINE RECEPTOR LIGANDS AND METHODS OF TREATMENT USING DOPAMINE RECEPTOR LIGANDS” (priority 2007, published 2011)", "key": {"[1]": {"tested_on": "chronic mild stress (CMS) model of depression", "test": "Chronic mild stress (CMS) model of depression, sucrose consumption (Example 2)", "type": "in vivo, rat", "from_the_text": "This study evaluated the antidepressant effect of cariprazine hydrochloride in the chronic mild stress (CMS) model of depression. A comparison to the efficacy of the tricyciclic antidepressant compound imipramine was also made.\nMale Wistar rats were adapted to laboratory and housing conditions for 3 weeks, followed by adoption to consumption of 1% sucrose solution for an additional 5 weeks before being separated into control and to-be-stressed groups.\nChronic stress was applied to the allocated group for seven weeks. The following stressors were used: food and/or water deprivation, cage tilting (45 degrees backwards), intermittent illumination, paired housing, soiled cage (250 mL of tap water in sawdust bedding), stroboscopic illumination (150 flashed per minute), no stress. All stressors were 10-14 hours in duration and were applied individually and continuously, once or twice weekly, during the day and at night.\nConsumption of sucrose solution was measured in 1-hour tests conducted on all animals (i.e., controls and stressed) once weekly throughout the entire experiment. The tests were preceded by 14 hours of food and water deprivation. On the basis of their sucrose intakes following the initial 2 weeks of stress, both stressed and control animals received once-daily chronic (5 weeks) IP injections of vehicle (1% methyl cellulose, 1 mL/kg), cariprazine hydrochloride (0.0625, 0.25 or 1.0 mg/kg), or imipramine (10 mg/kg) as reference treatment. […] These animals were considered weak responders/non-responders and were eliminated from the analysis."}, "[2]": {"tested_on": "basal locomotor activity of mice", "test": "Open field, basal locomotor activity of mice (Example 4A)", "type": "in vivo, mouse"}, "[3]": {"conditions": "cariprazine hydrochloride 1 mg/kg IP once daily"}, "[4]": {"conditions": "cariprazine hydrochloride 0.065 and 0.25 mg/kg IP once daily, 5 weeks"}}, "note": "Counter-ions that a name gives are not always drawn.", "data": [{"smiles": "CN(C)C(=O)N[C@H]1CC[C@H](CCN2CCN(c3cccc(Cl)c3Cl)CC2)CC1", "note": "[Cariprazine hydrochloride, trans-4-{2-[4-(2,3-dichlorophenyl)-piperazin-1-yl]-ethyl}-N,N-dimethylcarbamoyl-cyclohexylamine hydrochloride]", "values": [{"measurement": "onset of action: increases in sucrose drinking evident at", "setting": "[1]; cariprazine hydrochloride 0.065 mg/kg IP once daily, stressed animals", "result": 1, "unit": "Week"}, {"measurement": "sedation", "setting": "[1]; cariprazine hydrochloride 1 mg/kg IP", "result": "strongly sedative dose"}, {"measurement": "sucrose consumption in control animals", "setting": "[1]; [3]", "result": "significantly decreased"}, {"measurement": "sucrose intake in stressed animals", "setting": "[1]; [3]", "result": "did not change"}, {"measurement": "activity in the CMS model", "setting": "[1]; cariprazine hydrochloride 1 mg/kg IP once daily (highest dose)", "result": "inactive"}, {"measurement": "sucrose drinking in controls (non-stressed)", "setting": "[1]; [4]", "result": "without any significant effect"}, {"measurement": "sucrose drinking in stressed animals", "setting": "[1]; [4]", "result": "dose-dependently increased sucrose drinking"}, {"measurement": "magnitude of effect on sucrose drinking relative to imipramine", "setting": "[1]; most active dose 0.065 mg/kg IP vs imipramine 10 mg/kg IP", "result": "greater than that of imipramine"}]}, {"smiles": "CN(C)CCC[C@@]1(c2ccc(F)cc2)OCc2cc(C#N)ccc21", "note": "[Escitalopram oxalate, 1-[3-(dimethyl-amino)propyl]-1-(p-fluorophenyl)-5-phthalancarbonitrile]", "values": [{"measurement": "effect on basal activity compared to water-treated mice", "setting": "[2]; escitalopram oxalate 0.5, 2.0 and 5.0 mg/kg oral", "result": "Neither valproate nor escitalopram oxalate (0.5, 2.0, and 5.0 mg/kg) had a significant effect"}, {"measurement": "Total Distance Traveled [mean ± SEM]", "setting": "[2]; test condition water, 2.0 mg/kg oral, 60 min pretreatment", "result": "5939 ± 369", "unit": "cm/60 min"}]}]}
